The values that follow come from ChEMBL document CHEMBL5303711, “ECBD screening data for assay EOS300108” (2023).

Active and inactive are the calls of the source. How the calls were made is not given here.

The data set is described as follows: Cytotoxicity activity against human HepG2 cells assessed by CellTiter-Glo luminescent cell viability assay. It counts as toxicity, cell-based. Set-up: assay stage confirmatory assay, source tissue liver. Conditions: HepG2 cells, read-out: IC50 relative. Background: ATP-based viability assays read luminescence as a measure of living cells.

Take `O=c1c2ccccc2sn1-c1nccs1`: the CC50 was 50 µM (inactive).

Regarding `COc1ccccc1C(=O)Nc1nc2ccccc2[nH]1`, the CC50 was 2.8 µM (active).

Consider `O=C(CCN1CCCCC1)c1cc2ccccc2o1`, for which the CC50 was 21.1 µM (inactive).

Turning to `Cc1ccnc(NC(=O)c2csc(Cl)c2)n1`, the CC50 is 4.8 µM (active).

In the case of `CC1=CCN(C[C@H](O)COc2ccc3c(c2)OCO3)CC1`, the CC50 was 13.5 µM (inactive).

On to `Cc1cc(C)nc(-n2ncc(Cl)c(Cl)c2=O)n1`, for which the CC50 is 3.8 µM (active).

On to `Cc1nc(CCN[C@@H](C)c2ccc(S(N)(=O)=O)cc2)cs1`, for which the CC50 was 2.7 µM (active).

For the compound `CCN1CCC(NC[C@H](C)Oc2ccc(C(C)C)cc2)CC1`, the CC50 was 7.1 µM (active).

Take `O=S(=O)(C[C@H]1CCOC1)NC1CCN(Cc2ccc(Cl)cc2)CC1`: the CC50 was 12.9 µM (active).

`CN(C)C(=O)c1cccc(CN(C)c2ccccc2CO)c1`: the CC50 is 10.9 µM (active).

Regarding `COc1ccc(Nc2nc(CN3CCN(S(=O)(=O)c4cccs4)CC3)cs2)cc1`, the CC50 was 7.1 µM (active).

Take `CN(C)CC1(O)CCCN(Cc2cc3ccccc3n2C)C1` (configuration not stated): the CC50 was 11.8 µM (active).

For `Cc1ccccc1C[C@H](C)NCCN1CCC(N(C)C)CC1`, the CC50 is 13.7 µM (inactive).

Take `CCc1oc2ccccc2c1CN(C)C(=O)C1(C)CCN(C)CC1`: the CC50 was 12 µM (active).

`Nc1nc(C2CC(N)C2)cc(N2CCC(OCc3ccccc3)CC2)n1` (configuration not stated): the CC50 is 10.8 µM (active).

In the case of `O=S(=O)(c1ccc(S(=O)(=O)N2CCOc3ccccc32)cc1)N1CCCC1`, the CC50 is 4.2 µM (active).

In the case of `CCS(=O)(=O)c1ccc(NC(=O)c2ccc(F)c(S(=O)(=O)N3CCCCC3)c2)cc1`, the CC50 was 6.1 µM (inactive).

Turning to `Cn1nccc1CCNC(=O)c1csc(-c2ccoc2)n1`, the CC50 is 2 µM (active).

Regarding `Cc1ccc2ncc(C(=O)Nc3ccc(Cl)cc3O)c(=O)n2c1`, the CC50 is 1.4 µM (inactive).

Regarding `c1ccc(Oc2cccc(C[C@H]3CCCN3)c2)cc1`, the CC50 was 13.7 µM (inactive).

On to `COc1ccc(OC)c(-c2cc(C(=O)Nc3ccccn3)no2)c1`, for which the CC50 was 0.8 µM (inactive).

Consider `Cn1ccc(C(=O)Nc2cc(F)ccc2-n2cccn2)cc1=O`, for which the CC50 is 1.1 µM (inactive).

For the compound `CCOc1ccc(NC(=O)CNC[C@H]2CCCO2)cc1C`, the CC50 is 40.3 µM (inactive).

Turning to `COCC(=O)N1CCCN(Cc2ccc3c4c(cccc24)C(=O)OC3)CC1`, the CC50 is 13.4 µM (active).

Turning to `CCOc1ccc(S(=O)(=O)NCC2(C)CCNCC2)c2ccccc12`, the CC50 is 10 µM (active).

As to `Cc1cc(C)cc(N2CCN(C(=O)c3cnn4ccccc34)CC2=O)c1`, the CC50 was 0.7 µM (active).

Take `CC[C@H]1CN(c2ccccc2)CCN1c1ccnc(C(C)C)n1`: the CC50 was 10.7 µM (active).

Turning to `Fc1ccccc1CC1CCN(C[C@H]2[C@@H]3CNC[C@@H]32)CC1`, the CC50 was 8.8 µM (active).

Turning to `O=c1cc(O)c2c(-c3ccc(F)cc3)csc2[nH]1`, the CC50 was 2.7 µM (active).

Turning to `COc1ccc(C(=O)N2CCN(c3ncnc4cccc(F)c34)CC2)cc1`, the CC50 was 9.4 µM (active).

For the compound `COc1ccc([C@@H]2CCCN2c2cnn(C(C)(C)C)c(=O)c2Cl)cc1`, the CC50 was 11.1 µM (active).

With `N#Cc1c[nH]c(C(=O)Nc2cc(C(F)(F)F)ccn2)c1`, the CC50 was 12.3 µM (active).

As to `COc1ccc(C(=O)Nc2nc3cc4c(cc3s2)OCCO4)cn1`, the CC50 is 50 µM (inactive).

For the compound `Cc1cnccc1NCCNC1CCN(c2ccc(F)c(F)c2)CC1`, the CC50 is 1.7 µM (active).

As to `CN1CCCN(C(=O)Nc2ccc3c4c(cccc24)CC3)CC1`, the CC50 is 9.4 µM (active).

Consider `CS(=O)(=O)Nc1ccc(C(=O)N2CCN(CCOc3ccc(Cl)cc3)CC2)cc1`, for which the CC50 is 4.6 µM (active).

For the compound `CC(C)(C)Cc1cc(NC(=O)[C@@H]2CCCN2C(=O)c2ccc3c(c2)OCO3)[nH]n1`, the CC50 was 0.8 µM (active).

Turning to `O=C(Cn1ncc(Cl)c(Cl)c1=O)NCc1ccccc1`, the CC50 was 5.4 µM (active).

`Cc1cccc(C(=O)Nc2nc(-c3nccn3C)cs2)c1`: the CC50 was 4.7 µM (active).

As to `COc1cc(OC)c(C2=CCN(C[C@H](O)COc3ccccc3F)CC2)c(OC)c1`, the CC50 was 6 µM (active).

Turning to `N#Cc1nccnc1Sc1nnc(COc2ccc(Cl)cc2)o1`, the CC50 was 2.9 µM (active).

For `C[C@H]1CN(C)c2ccccc2N(Cc2cc3ccccc3c(=O)[nH]2)C1`, the CC50 is 16.9 µM (inactive).

In the case of `c1cc(N2CCC[C@H]2C2CCCCC2)nc(C2CC2)n1`, the CC50 is 11.8 µM (active).

In the case of `CCCC[C@H](CC)CNC1CCN(C(C)C)CC1`, the CC50 is 7.8 µM (inactive).

Consider `Cc1cc2c(=O)nc(-c3cc(OCC(F)F)ccn3)[nH]c2s1`, for which the CC50 is 2.2 µM (active).

With `COc1ccc(C(N)=O)c(OCc2cn3ccccc3c2C#N)c1`, the CC50 is 10.7 µM (inactive).

Consider `C#CCNC(=O)c1ccccc1NCc1ccc(C#N)cc1OC`, for which the CC50 is 1 µM (active).

With `CCCOc1cc(S(=O)(=O)Nc2cccc(O)c2)ccc1Cl`, the CC50 is 12 µM (active).

On to `C1=CC[C@@H](CNC2CCN(Cc3ccccc3)CC2)CC1`, for which the CC50 is 13 µM (active).

With `CNC(=O)c1c(N)sc2c1-c1ccccc1C2`, the CC50 was 19.3 µM (inactive).

As to `NC1CCN(S(=O)(=O)c2ccc([C@H]3[C@@H]4CCCC[C@@H]43)cc2)CC1`, the CC50 was 12 µM (active).

On to `CCO[C@@H](CCNC(=O)c1csc(-c2ccoc2)n1)C(C)C`, for which the CC50 is 1.3 µM (active).

As for `CN[C@H]1CCCN(S(=O)(=O)c2ccc(Cl)cc2F)C1`, the CC50 was 17.1 µM (inactive).

Regarding `Cc1cc(-c2ccc(O)cc2O)nc2cc3c(cc12)OCO3`, the CC50 is 26.3 µM (inactive).

Take `COc1ncccc1NC(=O)c1n[nH]c2ccccc12`: the CC50 is 0.1 µM (active).

Take `CCn1c(Cn2ncc(Cl)c(Cl)c2=O)nc2cc(F)ccc21`: the CC50 was 3 µM (active).

For the compound `COc1ccc(C(N)=O)c(OCc2cccc3cccnc23)c1`, the CC50 is 0.3 µM (active).

As to `CN(C)S(=O)(=O)c1ccc2oc(SCCOc3ccccc3)nc2c1`, the CC50 was 10 µM (active).

In the case of `O=C(Nc1cccc(Cl)c1O)c1sccc1Br`, the CC50 is 0.8 µM (active).

Take `CC[C@@](NC(=O)c1csc(-c2ccoc2)n1)(C(N)=O)C(C)C`: the CC50 was 5.2 µM (active).

As to `NC(=O)c1cc(-c2csc(Nc3ccccc3)n2)ccc1O`, the CC50 is 14.2 µM (inactive).

Turning to `CC(C)CCn1c(SCC(=O)NCCN(C(C)C)C(C)C)nc2ccccc2c1=O`, the CC50 is 12.5 µM (active).

Regarding `O=C(N[C@H]1CCCc2sccc21)c1cccc2c1OCO2`, the CC50 is 6.5 µM (active).

Take `Cn1c(=O)c2ccc(C(=O)Nc3nc(-c4ccco4)cs3)nc2n(C)c1=O`: the CC50 was 10.5 µM (inactive).

As for `COc1cc(OC)cc(C(=O)N2CCN(Cn3ncc(Cl)c(Cl)c3=O)CC2)c1`, the CC50 is 23.4 µM (inactive).

Consider `CCc1nnsc1C(=O)Nc1cc(-c2cccs2)n[nH]1`, for which the CC50 was 4.8 µM (active).

In the case of `COc1ccc(OC2CCN(CC[C@H]3CCCCN3C)CC2)cc1`, the CC50 is 11.2 µM (inactive).
